The DC50 is the concentration at which degradation of the target reaches its halfway point. Higher therefore signals a less potent degrader. For orientation: IC50 means the concentration that inhibits the measured activity by half. A low value points to greater potency. As a reminder, the remaining activity is the signal under treatment as a percentage of the control signal. Usually GI50 stands for the concentration at which growth is held to half of that of the control. Read a low GI50 as greater sensitivity of the cells.

21 compounds from patent US20260055114A1, “IMIDAZO[1,2-B]PYRIDAZINE INHIBITORS OF CYCLIN-DEPENDENT KINASES” (H. LEE MOFFITT CANCER CENTER AND RESEARCH INSTITUTE, INC., priority 2022, published 2026) can be followed below.

One experiment deals with CCNK. Description: CCNK degradation (DC50, Dmax). It counts as cell-based. The following applies: for Dmax (%): CCNK degradation.
Another experiment deals with CDK12 (Homo sapiens, UniProt Q9NYV4). Description: Inhibition of cyclin-dependent kinase 12 (% enzyme activity at 1 uM and IC50). The note with it: for remaining activity at 1 µM: 1 uM compound. The format is biochemical.
In the next experiment the test system is MDA-MB-231 cell line. The experiment in a line: Antiproliferative activity, MDA-MB-231 cell line (GI50). It counts as cell-based. The note with it: Homo sapiens.

Chain of CDK12 (Q9NYV4 whole entry): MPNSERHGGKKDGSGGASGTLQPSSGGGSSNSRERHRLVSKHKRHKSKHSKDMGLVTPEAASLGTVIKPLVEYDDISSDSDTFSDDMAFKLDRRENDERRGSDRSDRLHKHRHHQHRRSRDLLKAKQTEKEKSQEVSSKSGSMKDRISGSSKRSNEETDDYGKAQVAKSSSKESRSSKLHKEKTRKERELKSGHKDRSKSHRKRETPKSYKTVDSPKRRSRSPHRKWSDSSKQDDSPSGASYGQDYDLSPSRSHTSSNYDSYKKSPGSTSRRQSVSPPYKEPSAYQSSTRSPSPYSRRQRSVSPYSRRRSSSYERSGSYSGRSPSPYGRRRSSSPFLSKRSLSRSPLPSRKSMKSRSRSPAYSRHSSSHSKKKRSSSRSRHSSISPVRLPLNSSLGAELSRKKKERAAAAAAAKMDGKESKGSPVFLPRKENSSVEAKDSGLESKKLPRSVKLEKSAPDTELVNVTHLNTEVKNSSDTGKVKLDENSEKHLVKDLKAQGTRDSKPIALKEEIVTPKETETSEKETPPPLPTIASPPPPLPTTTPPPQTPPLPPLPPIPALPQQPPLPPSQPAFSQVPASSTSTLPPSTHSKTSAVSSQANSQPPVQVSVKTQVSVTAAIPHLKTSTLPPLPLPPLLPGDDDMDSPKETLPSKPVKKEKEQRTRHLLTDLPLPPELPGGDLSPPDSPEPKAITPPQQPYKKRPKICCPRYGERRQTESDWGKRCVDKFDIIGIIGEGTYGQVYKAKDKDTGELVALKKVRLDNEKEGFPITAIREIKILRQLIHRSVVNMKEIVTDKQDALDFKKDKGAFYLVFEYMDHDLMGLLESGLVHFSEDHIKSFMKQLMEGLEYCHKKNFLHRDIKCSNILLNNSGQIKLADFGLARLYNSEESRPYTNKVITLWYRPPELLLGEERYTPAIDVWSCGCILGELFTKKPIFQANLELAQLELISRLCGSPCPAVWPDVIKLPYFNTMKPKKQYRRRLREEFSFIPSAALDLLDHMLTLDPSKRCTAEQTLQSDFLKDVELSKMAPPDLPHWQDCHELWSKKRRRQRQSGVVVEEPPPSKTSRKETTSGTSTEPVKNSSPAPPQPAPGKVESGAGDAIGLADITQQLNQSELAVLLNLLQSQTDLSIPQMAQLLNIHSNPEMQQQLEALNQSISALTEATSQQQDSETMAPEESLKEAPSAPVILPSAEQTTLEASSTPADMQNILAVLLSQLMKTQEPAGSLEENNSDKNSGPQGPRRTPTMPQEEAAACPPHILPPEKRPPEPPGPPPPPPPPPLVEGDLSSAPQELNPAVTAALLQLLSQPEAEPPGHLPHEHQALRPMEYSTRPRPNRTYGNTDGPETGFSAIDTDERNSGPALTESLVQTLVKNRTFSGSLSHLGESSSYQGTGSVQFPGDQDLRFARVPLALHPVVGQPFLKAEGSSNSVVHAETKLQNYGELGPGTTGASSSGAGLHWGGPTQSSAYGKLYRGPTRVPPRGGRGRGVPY
Chain of CDK12 (O75909 whole entry partner): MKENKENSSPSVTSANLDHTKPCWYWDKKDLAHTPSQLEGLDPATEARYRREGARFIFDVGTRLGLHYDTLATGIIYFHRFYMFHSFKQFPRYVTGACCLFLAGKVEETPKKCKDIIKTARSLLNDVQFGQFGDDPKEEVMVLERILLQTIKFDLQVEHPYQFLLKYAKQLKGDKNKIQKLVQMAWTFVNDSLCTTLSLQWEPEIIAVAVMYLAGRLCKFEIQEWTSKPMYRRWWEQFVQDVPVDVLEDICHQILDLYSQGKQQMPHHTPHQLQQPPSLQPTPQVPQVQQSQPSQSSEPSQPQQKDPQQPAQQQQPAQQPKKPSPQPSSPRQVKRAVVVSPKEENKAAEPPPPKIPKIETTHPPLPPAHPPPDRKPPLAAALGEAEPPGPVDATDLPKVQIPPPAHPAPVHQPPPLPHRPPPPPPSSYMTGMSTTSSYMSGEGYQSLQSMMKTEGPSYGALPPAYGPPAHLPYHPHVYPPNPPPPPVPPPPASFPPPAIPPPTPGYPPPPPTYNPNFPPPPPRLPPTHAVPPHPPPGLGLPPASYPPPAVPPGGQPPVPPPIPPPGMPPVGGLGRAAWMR

As to `CN1CCN(c2cc(NCc3nc4c(F)c(F)ccc4[nH]3)c3ncc(-c4csc(C#N)c4)n3n2)CC1` [Cmpd 82, 4-(8-(((4,5-difluoro-1H-benzo[d]imidazol-2-yl)methyl)amino)-6-(4-methylpiperazin-1-yl)imidazo[1,2-b]pyridazin-3-yl)thiophene-2-carbonitrile], in the experiment with CCNK, half-maximal degradation (DC50) was put at 250 nM and the “Dmax (%)” value is 50%. On CDK12, the IC50 worked out at 405 nM and the remaining activity at 1 µM was found to be 30%. The GI50 with MDA-MB-231 cell line turned out to be 1120 nM.
The matching figures for `CN1CCN(c2cc(NCc3nc4cccc(Cl)c4[nH]3)c3ncc(-c4csc(C#N)c4)n3n2)CC1` [Cmpd 81, 4-(8-(((7-chloro-1/-benzo[d]imidazol-2-yl)methyl)amino)-6-(4-methylpiperazin-1-yl)imidazo[1,2-b]pyridazin-3-yl)thiophene-2-carbonitrile]: 300 nM, 80%, 647 nM, 33% and 1920 nM.
With `Cc1cc(-c2cnc3c(NCc4nc5c(F)c(F)ccc5[nH]4)cc(N4CCOCC4)nn23)cs1` [Cmpd 97, N-((4,5-difluoro-1H-benzo[d]imidazol-2-yl)methyl)-3-(5-methylthiophen-3-yl)-6-morpholinoimidazo[1,2-b]pyridazin-8-amine], in the experiment with CCNK, half-maximal degradation (DC50) was put at 1300 nM and the “Dmax (%)” value was 75%. In addition, at CDK12, the remaining activity at 1 µM is 79%. Also, the GI50 with MDA-MB-231 cell line came to 10000 nM.
For `CC(C)n1cc(-c2cnc3c(NCc4nc5c(F)c(F)ccc5[nH]4)cc(N4CCN(C)CC4)nn23)cn1` [Cmpd 23, N-((4,5-difluoro-1H-benzo[d]imidazol-2-yl)methyl)-3-(1-isopropyl-1H-pyrazol-4-yl)-6-(4-methylpiperazin-1-yl) imidazo[1,2-b]pyridazin-8-amine], in the experiment with CCNK, the DC50 stood at 10000 nM. Also, on CDK12, it took 1110 nM to reach half-maximal inhibition (IC50) and the remaining activity at 1 µM came out at 53%. The compound also displayed a GI50 in the experiment with MDA-MB-231 cell line of 5180 nM.
`Cc1ccnc2[nH]c(CNc3cc(N4CCN(C)CC4)nn4c(-c5ccsc5)cnc34)nc12` [Cmpd 75, N-((7-methyl-3H-imidazo[4,5-b]pyridin-2-yl)methyl)-6-(4-methylpiperazin-1-yl)-3-(thiophen-3-yl) imidazo[1,2-b]pyridazin-8-amine]: in the experiment with CCNK, it took 140 nM to reach half-maximal degradation (DC50) and the “Dmax (%)” value is 80%. This compound also had an IC50 against CDK12 of 38 nM. In the experiment on MDA-MB-231 cell line, this compound came in with a GI50 of 146 nM.
The matching figures for `CN1CCN(c2cc(NCc3nc4c(F)c(F)ccc4[nH]3)c3ncc(-c4cnn(C)c4)n3n2)CC1` [Cmpd 5, N-((4,5-difluoro-1H-benzo[d]imidazol-2-yl)methyl)-3-(1-methyl-1H-pyrazol-4-yl)-6-(4-methylpiperazin-1-yl) imidazo[1,2-b]pyridazin-8-amine]: 1300 nM, 65%, 3000 nM and 4280 nM.
The matching figures for `Clc1cc2nc(CNc3cc(N4CCOCC4)nn4c(-c5cn[nH]c5)cnc34)[nH]c2cc1Cl` [Cmpd 61, N-((5,6-dichloro-1H-benzo[d]imidazol-2-yl)methyl)-6-morpholino-3-(1H-pyrazol-4-yl) imidazo[1,2-b]pyridazin-8-amine]: 590 nM, 100%, 1320 nM and 235 nM.
`CC1(C)CN(c2cc(NCc3nc4cc(Cl)c(Cl)cc4[nH]3)c3ncc(-c4cnn(C(F)F)c4)n3n2)CCN1` [Cmpd 47, N-((5,6-dichloro-1H-benzo[d]imidazol-2-yl)methyl)-3-(1-(difluoromethyl)-1H-pyrazol-4-yl)-6-(3,3-dimethylpiperazin-1-yl) imidazo[1,2-b]pyridazin-8-amine]: in the experiment on CCNK, half-maximal degradation (DC50) was put at 30 nM and the “Dmax (%)” value is on record as 100%. The compound also displayed an IC50 on CDK12 of 18 nM. This compound gave a GI50 in the experiment on MDA-MB-231 cell line of 7 nM.
In the case of `Clc1cc2nc(CNc3cc(N4CCOCC4)nn4c(-c5cnn(C6CC6)c5)cnc34)[nH]c2cc1Cl` [Cmpd 30, 3-(1-cyclopropyl-1H-pyrazol-4-yl)-N-((5,6-dichloro-1H-benzo[d]imidazol-2-yl)methyl)-6-morpholinoimidazo[1,2-b]pyridazin-8-amine], in the experiment on CCNK, the DC50 amounted to 3000 nM and the “Dmax (%)” value turned out to be 70%. In addition, the remaining activity at 1 µM at CDK12 is 83%. In the experiment with MDA-MB-231 cell line, this compound had a GI50 of 2120 nM.
As to `Cc1ccnc2[nH]c(CNc3cc(N4CCN(C)CC4)nn4c(-c5cnn(C(F)F)c5)cnc34)nc12` [Cmpd 57, 3-(1-(difluoromethyl)-1H-pyrazol-4-yl)-N-((7-methyl-3H-imidazo[4,5-b]pyridin-2-yl)methyl)-6-(4-methylpiperazin-1-yl) imidazo[1,2-b]pyridazin-8-amine], in the experiment with CCNK, it took 240 nM to reach half-maximal degradation (DC50) and the “Dmax (%)” value was determined as 65%. Besides, the IC50 on CDK12 turned out to be 54 nM. In addition, the GI50 in the experiment on MDA-MB-231 cell line was 419 nM.
`CN1CCN(c2cc(NCc3nc4c(F)cccc4[nH]3)c3ncc(-c4cnn(C5CC5)c4)n3n2)CC1` [Cmpd 35, 3-(1-cyclopropyl-1H-pyrazol-4-yl)-N-((4-fluoro-1H-benzo[d]imidazol-2-yl)methyl)-6-(4-methylpiperazin-1-yl) imidazo[1,2-b]pyridazin-8-amine]: in the experiment with CCNK, the 50% degradation concentration (DC50) turned out to be 1300 nM and the “Dmax (%)” value turned out to be 80%. Further, on CDK12, the remaining activity at 1 µM worked out at 49%. Further, in the experiment on MDA-MB-231 cell line, halving of growth (GI50) required 5170 nM.
As for `Cc1ccnc2[nH]c(CNc3cc(N4CCN(C)CC4)nn4c(-c5cnn(C)c5)cnc34)nc12` [Cmpd 11, 3-(1-methyl-1H-pyrazol-4-yl)-N-((7-methyl-3H-imidazo[4,5-b]pyridin-2-yl)methyl)-6-(4-methylpiperazin-1-yl) imidazo[1,2-b]pyridazin-8-amine], in the experiment on CCNK, half-maximal degradation (DC50) was put at 5600 nM and the “Dmax (%)” value came out at 60%. The same compound returned an IC50 against CDK12 of 1000 nM. Besides, the GI50 in the experiment on MDA-MB-231 cell line amounted to 7930 nM.
The matching figures for `CN1CCN(c2cc(NCc3nc4cc(Cl)c(Cl)cc4[nH]3)c3ncc(-c4cn[nH]c4)n3n2)CC1` [Cmpd 60, N-((5,6-dichloro-1H-benzo[d]imidazol-2-yl)methyl)-6-(4-methylpiperazin-1-yl)-3-(1H-pyrazol-4-yl) imidazo[1,2-b]pyridazin-8-amine]: 1400 nM, 100%, 907 nM and 284 nM.
The matching figures for `CN1CCN(c2cc(NCc3nc4cc(Cl)c(Cl)cc4[nH]3)c3ncc(-c4cnn(C(F)F)c4)n3n2)CC1` [Cmpd 41, N-((5,6-dichloro-1H-benzo[d]imidazol-2-yl)methyl)-3-(1-(difluoromethyl)-1H-pyrazol-4-yl)-6-(4-methylpiperazin-1-yl) imidazo[1,2-b]pyridazin-8-amine]: 470 nM, 100%, 1000 nM and 247 nM.
For `CC(C)n1cc(-c2cnc3c(NCc4nc5c(F)cccc5[nH]4)cc(N4CCOCC4)nn23)cn1` [Cmpd 27, N-((4-fluoro-1H-benzo[d]imidazol-2-yl)methyl)-3-(1-isopropyl-1H-pyrazol-4-yl)-6-morpholinoimidazo[1,2-b]pyridazin-8-amine], in the experiment with CCNK, the DC50 came to 1600 nM and the “Dmax (%)” value amounted to 50%. Besides, at CDK12, half-maximal inhibition (IC50) was put at 1080 nM and the remaining activity at 1 µM came out at 52%. Further, in the experiment on MDA-MB-231 cell line, the GI50 is 10000 nM.
`Cc1cc(-c2cnc3c(NCc4nc5cc(Cl)c(Cl)cc5[nH]4)cc(N4CCN(C)CC4)nn23)cs1` [Cmpd 87, N-((5,6-dichloro-1H-benzo[d]imidazol-2-yl)methyl)-6-(4-methylpiperazin-1-yl)-3-(5-methylthiophen-3-yl) imidazo[1,2-b]pyridazin-8-amine]: it took 10000 nM to reach half-maximal degradation in the experiment with CCNK (DC50). Further, the remaining activity at 1 µM on CDK12 worked out at 82%. Further, the GI50 with MDA-MB-231 cell line worked out at 7360 nM.
In the case of `Cc1cc(-c2cnc3c(NCc4nc5c(F)cccc5[nH]4)cc(N4CCN(C)CC4)nn23)cs1` [Cmpd 93, N-((4-fluoro-1H-benzo[d]imidazol-2-yl)methyl)-6-(4-methylpiperazin-1-yl)-3-(5-methylthiophen-3-yl) imidazo[1,2-b]pyridazin-8-amine], in the experiment on CCNK, the DC50 came out at 80 nM and the “Dmax (%)” value is recorded as 80%. In addition, at CDK12, the IC50 was found to be 1220 nM and the remaining activity at 1 µM was 36%. In the experiment with MDA-MB-231 cell line, this compound gave a GI50 of 1250 nM.
In turn, `Cc1cc(-c2cnc3c(NCc4nc5c(C)ccnc5[nH]4)cc(N4CCOCC4)nn23)cs1` [Cmpd 91, N-((7-methyl-3H-imidazo[4,5-b]pyridin-2-yl)methyl)-3-(5-methylthiophen-3-yl)-6-morpholinoimidazo[1,2-b]pyridazin-8-amine] yielded a DC50 with CCNK of 10000 nM. Moreover, on CDK12, the remaining activity at 1 µM came out at 103%. Moreover, halving of growth in the experiment on MDA-MB-231 cell line (GI50) required 3940 nM.
As to `CC(C)n1cc(-c2cnc3c(NCc4nc5c(F)c(F)ccc5[nH]4)cc(N4CCOCC4)nn23)cn1` [Cmpd 24, N-((4,5-difluoro-1H-benzo[d]imidazol-2-yl)methyl)-3-(1-isopropyl-1H-pyrazol-4-yl)-6-morpholinoimidazo[1,2-b]pyridazin-8-amine], in the experiment on CCNK, the DC50 amounted to 2100 nM and the “Dmax (%)” value came to 65%. At CDK12, the IC50 was found to be 1270 nM and the remaining activity at 1 µM was found to be 60%. In addition, in the experiment on MDA-MB-231 cell line, the GI50 was determined as 10000 nM.
For `NC1CCN(c2cc(NCc3nc4cc(Cl)c(Cl)cc4[nH]3)c3ncc(-c4cnn(C(F)F)c4)n3n2)C1` (stereo not drawn) [Cmpd 44, 6-(3-aminopyrrolidin-1-yl)-N-((5,6-dichloro-1H-benzo[d]imidazol-2-yl)methyl)-3-(1-(difluoromethyl)-1H-pyrazol-4-yl) imidazo[1,2-b]pyridazin-8-amine], in the experiment with CCNK, the DC50 came to 440 nM and the “Dmax (%)” value is listed as 100%. Besides, at CDK12, the 50% inhibitory concentration (IC50) came out at 1420 nM. The GI50 with MDA-MB-231 cell line turned out to be 154 nM.
The matching figures for `Clc1cccc2nc(CNc3cc(N4CCNCC4)nn4c(-c5ccsc5)cnc34)[nH]c12` [Cmpd 68, N-((7-chloro-1H-benzo[d]imidazol-2-yl)methyl)-6-(piperazin-1-yl)-3-(thiophen-3-yl) imidazo[1,2-b]pyridazin-8-amine]: 10 nM, 90%, 65 nM and 33 nM.
